According to PMC13192270, “RhlR quorum-sensing receptor ligand sensitivity regulates the differential expression of phenazine genes in Pseudomonas aeruginosa” (Journal of Bacteriology, 2026):

Molecular target: T1, RhlR A44W (Pseudomonas aeruginosa, UniProt P54292, A44W)
T1 construct: expressed in transfected cells; host or cells: E. coli carrying pBAD-A-rhlR mutant, pCS26-prhlA-luxCDABE and pACYC-pqsE or empty pACYC
Experiment: E. coli prhlA-luxCDABE luciferase reporter assay
Type: cell-based
Details: even at the highest dose of C4HSL tested
Text: Previous analysis of the RhlR LBP focused on highly conserved residues that were known from other AHL-binding proteins to be important contacts for AHL molecules, particularly the lactone head group. We performed conservation analyses on 300 LuxR-type receptors to determine variable and moderately conserved residues in the LBP (Fig. 1B) and, in conjunction with our previously determined experimental structure of WT RhlR bound to the synthetic agonist mBTL, used for docking C4- and C6HSL. Based on our docking simulations, C4- and C6HSL occupy a similar position in the LBP as mBTL, a highly efficacious activator of RhlR (Fig. 1C; Fig. S1). We targeted residues A44, G46, T58, L69, Y72, D81, I84, W96, and W108 (Fig. 1B and C). These residues were selected because of their proximity to the acyl tail of C4HSL, as well as the differences in conservation that are observed at these sites. […] Transcription was monitored by light production via the expression of the luxCDABE operon controlled by the RhlR-dependent promoter of rhlA. […]
The range of responses to substitutions is best highlighted by changes at residue T58 (Fig. 2A). […] Indeed, of the LuxR-AHL experimentally determined structures, this region of the LBP is typically occupied by the acyl tail of long-chain AHLs or a hydrophobic residue ([5], [27], [29], [30], [42], [43]), a point we return to in the discussion. […]

## CCCC(=O)N[C@H]1CCOC1=O [C4HSL, N-butyryl-L-homoserine lactone]
  activation by C4HSL in the reporter system: not activated
